Tested on: NOMO1
Experiment: cell viability relative to DMSO control; higher = less cytotoxic
Conditions: 48 h
In short: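 Leukemia cells (NOMO1 or SEM, 500 cells/well; P12-Ichikawa, 1000 cells/well) were seeded in 5 μl in 1536-well plates after at least four passages of adaptation to each medium. They received library compounds in DMSO by pin dosing, 11 threefold points from 47 μM to 0.79 nM. Luminescence with CellTiter-Glo One was read after 48 h at 37°C. Viability is stated per plate relative to DMSO wells, with cell-free wells as background.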

[1] = HPLM + 10% dialyzed FBS, 0.000781 µM
[2] = HPLM + 10% dialyzed FBS, 0.00234 µM
[3] = HPLM + 10% dialyzed FBS, 0.00702 µM
[4] = HPLM + 10% dialyzed FBS, 0.0211 µM
[5] = HPLM + 10% dialyzed FBS, 0.0632 µM
[6] = HPLM + 10% dialyzed FBS, 0.19 µM
[7] = HPLM + 10% dialyzed FBS, 0.569 µM
[8] = HPLM + 10% dialyzed FBS, 1.71 µM
[9] = HPLM + 10% dialyzed FBS, 5.12 µM
[10] = HPLM + 10% dialyzed FBS, 15.4 µM
[11] = HPLM + 10% dialyzed FBS, 46.1 µM
[12] = RPMI 5 mM glucose + 10% FBS, 0.000781 µM
[13] = RPMI 5 mM glucose + 10% FBS, 0.00234 µM
[14] = RPMI 5 mM glucose + 10% FBS, 0.00702 µM
[15] = RPMI 5 mM glucose + 10% FBS, 0.0211 µM
[16] = RPMI 5 mM glucose + 10% FBS, 0.0632 µM
[17] = RPMI 5 mM glucose + 10% FBS, 0.19 µM
[18] = RPMI 5 mM glucose + 10% FBS, 0.569 µM
[19] = RPMI 5 mM glucose + 10% FBS, 1.71 µM
[20] = RPMI 5 mM glucose + 10% FBS, 5.12 µM
[21] = RPMI 5 mM glucose + 10% FBS, 15.4 µM
[22] = RPMI 5 mM glucose + 10% FBS, 46.1 µM
[23] = RPMI 5 mM glucose + 10% dialyzed FBS, 0.000781 µM
[24] = RPMI 5 mM glucose + 10% dialyzed FBS, 0.00234 µM
[25] = RPMI 5 mM glucose + 10% dialyzed FBS, 0.00702 µM
[26] = RPMI 5 mM glucose + 10% dialyzed FBS, 0.0211 µM
[27] = RPMI 5 mM glucose + 10% dialyzed FBS, 0.0632 µM
[28] = RPMI 5 mM glucose + 10% dialyzed FBS, 0.19 µM
[29] = RPMI 5 mM glucose + 10% dialyzed FBS, 0.569 µM
[30] = RPMI 5 mM glucose + 10% dialyzed FBS, 1.71 µM
[31] = RPMI 5 mM glucose + 10% dialyzed FBS, 5.12 µM
[32] = RPMI 5 mM glucose + 10% dialyzed FBS, 15.4 µM
[33] = RPMI 5 mM glucose + 10% dialyzed FBS, 46.1 µM

| SMILES | cell viability [1] [%] | cell viability [2] [%] | cell viability [3] [%] | cell viability [4] [%] | cell viability [5] [%] | cell viability [6] [%] | cell viability [7] [%] | cell viability [8] [%] | cell viability [9] [%] | cell viability [10] [%] | cell viability [11] [%] | cell viability [12] [%] | cell viability [13] [%] | cell viability [14] [%] | cell viability [15] [%] | cell viability [16] [%] | cell viability [17] [%] | cell viability [18] [%] | cell viability [19] [%] | cell viability [20] [%] | cell viability [21] [%] | cell viability [22] [%] | cell viability [23] [%] | cell viability [24] [%] | cell viability [25] [%] | cell viability [26] [%] | cell viability [27] [%] | cell viability [28] [%] | cell viability [29] [%] | cell viability [30] [%] | cell viability [31] [%] | cell viability [32] [%] | cell viability [33] [%] |
| --- | --- | --- | --- | --- | --- | --- | --- | --- | --- | --- | --- | --- | --- | --- | --- | --- | --- | --- | --- | --- | --- | --- | --- | --- | --- | --- | --- | --- | --- | --- | --- | --- | --- |
| FC1=CC=C(CN2\C=C/C=C(/C(=O)N[C@@H](COC3=CC4=C(NC(=O)N4)C=C3)C5=CC=CC=C5)C2=O)C=C1F | 86.7 | 91.5 | 97 | 111 | 103 | 109 | 97.6 | 82.8 | 64.6 | 53.8 | 43.5 | 77.8 | 80.1 | 88.4 | 79.9 | 82.8 | 96.6 | 85.8 | 86.8 | 69.2 | 60.3 | 45.9 | 88.7 | 86.8 | 97.7 | 82.8 | 84.4 | 89.5 | 82.3 | 73.9 | 63.3 | 57.6 | 44.3 |
| CC1=CC=C2\N=C/3N(CC[C@@]3(O)C(=O)C2=C1)C4=CC=CC=C4 | 102 | 103 | 96.2 | 104 | 104 | 95.4 | 105 | 88.3 | 74 | 88.9 | 91.3 | 82 | 88.2 | 93.6 | 85.4 | 79.3 | 79.5 | 84 | 84.4 | 75.8 | 92.2 | 85.9 | 94.5 | 95.1 | 87.5 | 86.7 | 101 | 92 | 86.7 | 88.9 | 79.2 | 84.9 | 82.9 |
| CN(CCOc1ccc(NS(C)(=O)=O)cc1)CCc1ccc(NS(C)(=O)=O)cc1 | 108 | 126 | 110 | 116 | 136 | 138 | 147 | 133 | 131 | 135 | 134 | 121 | 119 | 109 | 129 | 117 | 120 | 135 | 120 | 141 | 118 | 136 | – | – | – | – | – | – | – | – | – | – | – |
| CO[C@@H]1[C@@H](OC(N)=O)[C@@H](O)[C@H](OC2=CC=C3\C(=C(NC(=O)C4=CC=C([O-])C(=C4)CC=C(C)C)/C(=O)OC3=C2C)O)OC1(C)C | 110 | 111 | 122 | 114 | 109 | 120 | 101 | 91.9 | 93.2 | 87 | 31.8 | 91.4 | 101 | 96.6 | 98.1 | 111 | 102 | 116 | 110 | 101 | 86.6 | 26.2 | 114 | 118 | 116 | 118 | 113 | 97.5 | 117 | 120 | 88.5 | 83.9 | 35.9 |
| C[C@H]1[C@H](O)O[C@@H]2O[C@@]3(C)CC[C@H]4[C@H](C)CC[C@@H]1[C@@]24OO3 | 86 | 97.3 | 81 | 92.6 | 89.9 | 96 | 84.4 | 58.1 | 13.4 | 9.81 | 15.4 | 80.2 | 80.5 | 93.2 | 97.2 | 91.9 | 92.2 | 88 | 56.3 | 14.9 | 7.4 | 8.31 | 99.8 | 96 | 92 | 85.7 | 89 | 104 | 93.8 | 64.4 | 17.5 | 12.2 | 15.6 |
| Cn1c(=O)c2[nH]cnc2n(C)c1=O | 120 | 111 | 121 | 122 | 92.5 | 115 | 120 | 106 | 110 | 102 | 84.8 | 114 | 103 | 103 | 104 | 94 | 100 | 101 | 113 | 95.8 | 99 | 93.6 | 101 | 108 | 104 | 100 | 108 | 96.3 | 92.2 | 99.7 | 106 | 97.5 | 87.7 |
| CCN1\C=C(C(O)=O)/C(=O)C2=C1C=C(N3CCN(C)CC3)C(=C2)F | – | – | – | – | – | – | – | – | – | – | – | 97.7 | 104 | 106 | 108 | 106 | 113 | 107 | 104 | 82 | 71 | 51.9 | 123 | 112 | 112 | 154 | 157 | 77 | 71.9 | 47.7 | 57.6 | 58.5 | 32.6 |
| COC1=CC(=CC=C1)C2=CC=C(NC(=O)/C3=C(/CCC3)C(O)=O)C(=C2)F | 122 | 114 | 128 | 113 | 105 | 87.8 | 115 | 112 | 103 | 100 | 92.1 | 102 | 109 | 103 | 97.8 | 96.3 | 116 | 99.2 | 109 | 104 | 96 | 84.7 | 115 | 105 | 122 | 121 | 120 | 121 | 113 | 107 | 106 | 102 | 63.8 |
| O=C1CCC[C@@H]2[C@H]3CCC[N+]4([O-])CCC[C@@H](CN12)[C@@H]34 (stereo partly specified) | 75.3 | 92.3 | 98.9 | 87.6 | 105 | 98.2 | 88.4 | 94.5 | 56.9 | 10.1 | 5.34 | 83.5 | 86.8 | 86.1 | 92.7 | 98.7 | 92 | 107 | 94.1 | 64.3 | 22 | 6.85 | 79.1 | 88.7 | 93.2 | 97.4 | 97.8 | 98.7 | 94.4 | 88.9 | 51.3 | 29.7 | 5.35 |
| C[C@H](NC(=O)Cc1cc(F)cc(F)c1)C(=O)N[C@@H]1C(=O)N(C)c2ccccc2-c2ccccc21 | 99 | 107 | 122 | 126 | 121 | 123 | 96.2 | 118 | 55.6 | 9.2 | 6.63 | 107 | 106 | 115 | 110 | 120 | 112 | 116 | 121 | 109 | 27.3 | 8.18 | 101 | 109 | 121 | 120 | 124 | 117 | 125 | 114 | 125 | 63.6 | 13.8 |
| COc1ccc(C(=O)CC(=O)c2ccc(C(C)(C)C)cc2)cc1 | 78.3 | 107 | 92.8 | 101 | 108 | 112 | 131 | 130 | 121 | 98.3 | 105 | 101 | 108 | 107 | 110 | 121 | 113 | 122 | 104 | 117 | 122 | 121 | 73 | 102 | 99.9 | 106 | 108 | 111 | 110 | 106 | 115 | 95.7 | 111 |
| C/C(=C\c1csc(C)n1)[C@@H]1C[C@@H]2O[C@@H]2CCC[C@H](C)[C@H](O)[C@@H](C)C(=O)C(C)(C)[C@@H](O)CC(=O)O1 | 33.3 | 25.8 | 27.8 | 28.4 | 29.2 | 31.6 | 30.1 | 30.5 | 34.8 | 34 | 30.7 | 27.2 | 19.5 | 17.9 | 20.3 | 18.1 | 18 | 17.8 | 18.7 | 18.1 | 22.8 | 19.8 | 84.5 | 20.9 | 20 | 21.6 | 23.3 | 20.9 | 21.7 | 25.8 | 24.2 | 31.1 | 23.3 |
| COc1cc(NC(=O)c2ccc(-c3ccc(Cl)cc3)o2)cc(OC)c1 | 95.5 | 103 | 112 | 112 | 114 | 118 | 112 | 104 | 61.8 | 52.7 | 39.6 | 91.4 | 106 | 104 | 100 | 101 | 110 | 108 | 92.1 | 58.7 | 74.4 | 72.3 | 97.5 | 111 | 108 | 108 | 111 | 115 | 109 | 94.9 | 66.8 | 50.7 | 62.8 |
| N#CC1(c2ccc(NC(=O)c3cccnc3NCc3ccncc3)cc2)CCCC1 | 112 | 110 | 110 | 121 | 114 | 98.4 | 108 | 95.2 | 103 | 91.4 | 93.1 | 99.5 | 106 | 99.2 | 102 | 113 | 106 | 97.8 | 104 | 103 | 105 | 98.1 | 110 | 105 | 116 | 115 | 120 | 109 | 104 | 106 | 113 | 104 | 99.8 |
| COc1nccc(-c2c(-c3ccc(F)cc3)ncn2C2CCC(O)CC2)n1 (stereo unspecified) | 120 | 123 | 121 | 123 | 132 | 121 | 111 | 122 | 112 | 119 | 51.3 | 107 | 109 | 120 | 115 | 111 | 112 | 103 | 100 | 98.4 | 100 | 35.9 | 122 | 114 | 126 | 109 | 116 | 118 | 105 | 118 | 111 | 107 | 74.3 |
| O=C(c1ccc(/C=C/c2n[nH]c3ccccc23)cc1)N1CCNCC1 | 108 | 96.5 | 88.4 | 87.1 | 97.9 | 120 | 115 | 69.4 | 70.9 | 88.7 | 73.1 | 97 | 100 | 94 | 85.8 | 90.7 | 86.2 | 87.1 | 56.2 | 63.8 | 58.4 | 69 | 86.5 | 85.6 | 88.6 | 97.2 | 87.8 | 97.4 | 93.9 | 54.9 | 49.5 | 65.5 | 71.2 |

Reference: the supplement of paper PMC11451515
